The source of these data is PubChem BioAssay (NCI).

Holding throughout (assay): DTP human tumour cell line panel, 48 h
Experiment [1] relates to SK-MEL-28 melanoma.
Experiment [2] deals with OVCAR-8 ovarian.
The subject of experiment [3] is 786-0 renal.
The test system of experiment [4] is HCC-2998 colon.
For experiment [5], the system named is HOP-92 NSCLC.
For experiment [6], the system named is RPMI-8226 leukemia.
Experiment [7] relates to SN12C renal.
The subject of experiment [8] is UACC-62 melanoma.

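How tested: cells in 96-well plates exposed to compound for 48 hours at five concentrations. TGI marks complete inhibition of growth.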 Bounds are passed on as bounds.

The term TGI denotes the concentration giving total growth inhibition. A higher TGI goes with less potent growth arrest. For `O=S(=O)(SC1=NCCN1)c1ccc2ccccc2c1`, the TGI in experiment [1] was greater than 100 µM; in experiment [2], 40.5 µM; in experiment [3] it was 97.1 µM; in experiment [4], 38.7 µM; in experiment [5], greater than 100 µM; in experiment [6] it was 64 µM. Also, the results for the TGI in experiment [7] and in experiment [8] were 68.9 µM and greater than 100 µM, respectively.
As to `O=c1oc2ccccc2cc1-c1csc(Nc2ccc(F)cc2)n1`, the TGI in experiment [1] amounted to 6.6 µM; in experiment [2], 23.5 µM; in experiment [3], 3.17 µM; in experiment [4], 17.1 µM; in experiment [5] it was 24.4 µM; in experiment [6], 4.44 µM. The values for the TGI in experiment [7] and in experiment [8] were 10.1 µM and 43.9 µM, respectively.
As to `O=C(O)c1ccccc1/C=N/NC1=NCCN1`, the concentration for total growth inhibition (TGI) in experiment [1] was greater than 100 µM; in experiment [2], greater than 100 µM; in experiment [3], greater than 100 µM; in experiment [4] it was greater than 100 µM; in experiment [5] it was 91.9 µM; in experiment [6], greater than 100 µM. Besides, the TGI in experiment [8] was greater than 100 µM.
In the case of `CCOC(=O)CCCNC(=O)CCCCC(=O)N(C)C`, the TGI in experiment [1], in experiment [2], in experiment [3], in experiment [4], in experiment [5] and in experiment [6] was greater than 100 µM each time. For the same compound, the TGI in experiment [7] and in experiment [8] was greater than 100 µM in each case.
As to `O=C1CN(C(=O)C2CCCN2C(=O)C2CCCN2)C(=O)CN1` (stereo not given), the TGI in experiment [1], in experiment [2], in experiment [3], in experiment [4], in experiment [5] and in experiment [6] was greater than 100 µM in each case. Further, the TGI in experiment [7] and in experiment [8] was greater than 100 µM each time.
For the compound `COc1ccc(CC2CCc3nc(N)nc(N)c3C2)cc1OC` (stereo not given), the TGI in experiment [1] is greater than 100 µM; in experiment [2], greater than 62.5 µM; in experiment [4] it was greater than 47 µM; in experiment [5], greater than 100 µM; in experiment [6], greater than 100 µM; in experiment [7] it was greater than 100 µM. This compound came in with a total growth inhibition concentration (TGI) in experiment [8] greater than 36.9 µM.
On to `N#CC1C(=O)N(c2ccccc2)NC12OC(=O)c1ccncc12` (stereo not given), for which the TGI in experiment [1], in experiment [2], in experiment [3], in experiment [4], in experiment [5] and in experiment [6] was greater than 20 µM each time. The TGI in experiment [7] and in experiment [8] was greater than 20 µM each time.
On to `CCCCC(=O)c1ccc2ccccc2c1O`, for which the TGI in experiment [1], in experiment [2], in experiment [3], in experiment [4], in experiment [5] and in experiment [6] was greater than 100 µM each time. This compound also had a TGI in experiment [8] greater than 100 µM.
For `CC(=O)Oc1cc(Cl)c(C)c2c1[C@H]1CC[C@]3(C)[C@@H](OC(C)=O)CC[C@H]3[C@@H]1CC2`, the TGI in experiment [1], in experiment [2], in experiment [3], in experiment [4], in experiment [5] and in experiment [6] was greater than 100 µM each time. Moreover, the concentration for total growth inhibition (TGI) in experiment [7] and in experiment [8] was greater than 100 µM throughout.
In the case of `CN1CCN(c2ccc3[nH]c(-c4cc(O)c5c(nc(CO)n5C)c4O)nc3n2)CC1`, the TGI in experiment [1], in experiment [2], in experiment [3], in experiment [4], in experiment [5] and in experiment [6] was greater than 100 µM in each case. Besides, the TGI in experiment [7] was determined as 36.8 µM; in experiment [8], 27.8 µM.
For the compound `C[N+](C)(C)CCCSc1nc2ccccc2[nH]1`, the TGI in experiment [1], in experiment [2], in experiment [3], in experiment [4], in experiment [5] and in experiment [6] was greater than 100 µM in each case. For the same compound, the TGI in experiment [7] and in experiment [8] was greater than 100 µM each time.
Take `CC(C)NC(NC(C)C)=C(S(=O)(=O)C(F)(F)C(F)(F)C(F)(F)C(F)(F)F)S(=O)(=O)C(F)(F)C(F)(F)C(F)(F)C(F)(F)F`: the total growth inhibition concentration (TGI) in experiment [1], in experiment [2], in experiment [3], in experiment [4], in experiment [5] and in experiment [6] was greater than 100 µM each time. The TGI in experiment [7] and in experiment [8] was greater than 100 µM each time.
In the case of `CC(C)(C)C(=O)OCOP(=O)(OCOC(=O)C(C)(C)C)OCC1OC(n2ccc(=O)[nH]c2=O)C(N=[N+]=[N-])C1O` (stereo not given), the TGI in experiment [1] was found to be 24 µM; in experiment [2] it was 12.9 µM; in experiment [3], 10.3 µM; in experiment [4] it was 13.4 µM; in experiment [5], 5 µM; in experiment [6], 5.22 µM. Further, the TGI in experiment [7] worked out at 22 µM; in experiment [8], 14.6 µM.
For `CC1(C)C2CCC(CN)(C2)C1N` (stereo not given), the concentration for total growth inhibition (TGI) in experiment [1], in experiment [2], in experiment [3], in experiment [4], in experiment [5] and in experiment [6] was greater than 100 µM each time. Besides, the TGI in experiment [7] and in experiment [8] was greater than 100 µM throughout.
In the case of `Nc1nc(Cl)c(CO)c(NCC2(CO)CC(CCc3ccccc3)C2)n1` (stereo not given), the TGI in experiment [1] was 47 µM; in experiment [2], 35.6 µM; in experiment [3], greater than 100 µM; in experiment [4] it was greater than 100 µM; in experiment [5], 73.1 µM; in experiment [6] it was 35.2 µM. The TGI in experiment [7] is greater than 100 µM.
As for `Oc1c2cc(Cl)cc1COCc1cc(Cl)cc(c1O)COCc1cc(Cl)cc(c1O)COC2`, the TGI in experiment [1] is greater than 100 µM; in experiment [2], 32.9 µM; in experiment [3], 37.7 µM; in experiment [4] it was greater than 100 µM; in experiment [5] it was 92.2 µM; in experiment [6], greater than 100 µM. Further, in experiment [8], the total growth inhibition concentration (TGI) was greater than 100 µM.
With `O=c1[nH]nc(-c2ccccc2)n1-c1ccncc1`, the concentration for total growth inhibition (TGI) in experiment [1], in experiment [2], in experiment [3], in experiment [4], in experiment [5] and in experiment [6] was greater than 100 µM each time. This compound came in with a TGI in experiment [7] greater than 100 µM.
